In paper PMC7156458, “Synthetic biology based construction of biological activity-related library of fungal decalin-containing diterpenoid pyrones” (Nature Communications, 2020):

Target: Aβ42 (Homo sapiens, UniProt P05067)
Assay: Th-T (thioflavin-T) assay of Aβ42 aggregation
Format: biochemical
Conditions: for Th-T assay plate reading, mean of three wells (Supplementary Fig. 47): source data, Ab alone and No Ab as controls

Chain of Aβ42 (P05067 672-713): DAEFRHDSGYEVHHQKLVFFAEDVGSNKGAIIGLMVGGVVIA

SMILES: C=C1CCC2C(C)(CCC=C(C)C)C(O)CCC2(C)C1Cc1c(OC)oc(C)c(C)c1=O (stereo not drawn) [Compound 15, viridoxin A hydrolysate]
- Th-T fluorescence, mean of three wells (Aβ42 aggregation time course, reading M117): 3.35
- Th-T fluorescence, mean of three wells (Aβ42 aggregation time course, reading M118): 3.314
- Th-T fluorescence, mean of three wells (Aβ42 aggregation time course, reading M119): 3.3216
- Th-T fluorescence, mean of three wells (Aβ42 aggregation time course, reading M120): 3.354
- Th-T fluorescence, mean of three wells (Aβ42 aggregation time course, reading M121): 3.335
- Th-T fluorescence, mean of three wells (Aβ42 aggregation time course, reading M122): 3.364
- Th-T fluorescence, mean of three wells (Aβ42 aggregation time course, reading M123): 3.352
- Th-T fluorescence, mean of three wells (Aβ42 aggregation time course, reading M124): 3.339
- Th-T fluorescence, mean of three wells (Aβ42 aggregation time course, reading M125): 3.327
- Th-T fluorescence, mean of three wells (Aβ42 aggregation time course, reading M126): 3.362
- Th-T fluorescence, mean of three wells (Aβ42 aggregation time course, reading M127): 3.317
- Th-T fluorescence, mean of three wells (Aβ42 aggregation time course, reading M128): 3.323
- Th-T fluorescence, mean of three wells (Aβ42 aggregation time course, reading M129): 3.297
- Th-T fluorescence, mean of three wells (Aβ42 aggregation time course, reading M130): 3.34
- Th-T fluorescence, mean of three wells (Aβ42 aggregation time course, reading M131): 3.327
- Th-T fluorescence, mean of three wells (Aβ42 aggregation time course, reading M132): 3.341
- Th-T fluorescence, mean of three wells (Aβ42 aggregation time course, reading M133): 3.324
- Th-T fluorescence, mean of three wells (Aβ42 aggregation time course, reading M134): 3.304
- Th-T fluorescence, mean of three wells (Aβ42 aggregation time course, reading M135): 3.315
- Th-T fluorescence, mean of three wells (Aβ42 aggregation time course, reading M136): 3.347
- Th-T fluorescence, mean of three wells (Supplementary Fig. 47, reading M137): 3.349
- Th-T fluorescence, mean of three wells (Supplementary Fig. 47, reading M138): 3.365
- Th-T fluorescence, mean of three wells (Supplementary Fig. 47, reading M139): 3.354
- Th-T fluorescence, mean of three wells (Supplementary Fig. 47, reading M140): 3.356
- Th-T fluorescence, mean of three wells (Supplementary Fig. 47, reading M141): 3.3427
- Th-T fluorescence, mean of three wells (Supplementary Fig. 47, reading M142): 3.34
- Th-T fluorescence, mean of three wells (Supplementary Fig. 47, reading M143): 3.336
- Th-T fluorescence, mean of three wells (Supplementary Fig. 47, reading M144): 3.346
- Th-T fluorescence, mean of three wells (Supplementary Fig. 47, reading M145): 3.328
- Th-T assay plate reading, mean of three wells (Supplementary Fig. 47) (measurement M1): 0.2276
- Th-T assay plate reading, mean of three wells (Supplementary Fig. 47) (measurement M2): 0.2029
- Th-T assay plate reading, mean of three wells (Supplementary Fig. 47) (measurement M3): 0.2068
- Th-T assay plate reading, mean of three wells (Supplementary Fig. 47) (measurement M4): 0.2103
- Th-T assay plate reading, mean of three wells (Supplementary Fig. 47) (measurement M5): 0.2149
- Th-T assay plate reading, mean of three wells (Supplementary Fig. 47) (measurement M6): 0.2264
- Th-T assay plate reading, mean of three wells (Supplementary Fig. 47) (measurement M7): 0.2421
- Th-T assay plate reading, mean of three wells (Supplementary Fig. 47) (measurement M8): 0.3484
- Th-T assay plate reading, mean of three wells (Supplementary Fig. 47) (measurement M9): 0.4623
- Th-T assay plate reading, mean of three wells (Supplementary Fig. 47) (measurement M10): 0.8904
- Th-T assay plate reading, mean of three wells (Supplementary Fig. 47) (measurement M11): 1.43
- Th-T assay plate reading, mean of three wells (Supplementary Fig. 47) (measurement M12): 1.748
- Th-T assay plate reading, mean of three wells (Supplementary Fig. 47) (measurement M13): 1.906
- Th-T assay plate reading, mean of three wells (Supplementary Fig. 47) (measurement M14): 1.9845
- Th-T assay plate reading, mean of three wells (Supplementary Fig. 47) (measurement M15): 1.9935
- Th-T assay plate reading, mean of three wells (Supplementary Fig. 47) (measurement M16): 2.026
- Th-T fluorescence, mean of three wells (reading M17, Supplementary Fig. 47 source data): 2.072
- Th-T fluorescence, mean of three wells (time-course reading M97, Supplementary Fig. 47 source data): 3.281
- Th-T fluorescence, mean of three wells (time-course reading M98, Supplementary Fig. 47 source data): 3.314
- Th-T fluorescence, mean of three wells (time-course reading M99, Supplementary Fig. 47 source data): 3.322
- Th-T fluorescence, mean of three wells (time-course reading M100, Supplementary Fig. 47 source data): 3.3481
- Th-T fluorescence, mean of three wells (time-course reading M101, Supplementary Fig. 47 source data): 3.295
- Th-T fluorescence, mean of three wells (time-course reading M102, Supplementary Fig. 47 source data): 3.298
- Th-T fluorescence, mean of three wells (time-course reading M103, Supplementary Fig. 47 source data): 3.312
- Th-T fluorescence, mean of three wells (time-course reading M104, Supplementary Fig. 47 source data): 3.321
- Th-T fluorescence, mean of three wells (time-course reading M105, Supplementary Fig. 47 source data): 3.301
- Th-T fluorescence, mean of three wells (time-course reading M106, Supplementary Fig. 47 source data): 3.313
- Th-T fluorescence, mean of three wells (time-course reading M107, Supplementary Fig. 47 source data): 3.319
- Th-T fluorescence, mean of three wells (time-course reading M108, Supplementary Fig. 47 source data): 3.3191
- Th-T fluorescence, mean of three wells (time-course reading M109, Supplementary Fig. 47 source data): 3.3293
- Th-T fluorescence, mean of three wells (time-course reading M110, Supplementary Fig. 47 source data): 3.309
- Th-T fluorescence, mean of three wells (time-course reading M111, Supplementary Fig. 47 source data): 3.3187
- Th-T fluorescence, mean of three wells (time-course reading M112, Supplementary Fig. 47 source data): 3.343
- Th-T fluorescence, mean of three wells (time-course reading M113, Supplementary Fig. 47 source data): 3.364
- Th-T fluorescence, mean of three wells (time-course reading M114, Supplementary Fig. 47 source data): 3.378
- Th-T fluorescence, mean of three wells (time-course reading M115, Supplementary Fig. 47 source data): 3.333
- Th-T fluorescence, mean of three wells (time-course reading M116, Supplementary Fig. 47 source data): 3.348
